“Also recorded” adds a separate entry of the source.
How the values were obtained:
Assay type in all cases: cell-based
[1] = test system: L. paracasei (LP), Lactobacillus casei (LC) and L. rhamnosus (LR) probiotic cells; experiment: survivability during simulated gastrointestinal treatments (SGF 2 h, then SIF 2 h); conditions: for Stability of probiotics against gastric pH and bile salt tolerance: infusion in cells
Experimental: To illustrate the role of phenolic bioactives in influencing cell viability, changes in the intracellular pH and interactions of bile salts with cells were measured after simulated gastric and intestinal treatments respectively. Survivability of cells with and without infused plant extracts were evaluated during simulated gastrointestinal treatments under anaerobic conditions. Simulated gastric fluids (SGF, pH=3) were prepared by adding 0.5% w/v sodium chloride, hydrochloric acid to maintain pH and 3.2 mg/ml pepsin. 1 g of selected bacterial cells with and without infused plant extracts were separately incubated in SGF for 2 h at 37° C. and 100 rpm. After gastric treatment, the cells were pelleted down by centrifuging at 5000 rpm for 2 min and then resuspended in the simulated intestinal fluids (SIF) containing 3.33 mg/mL calcium chloride, 5 g/L sodium chloride, 10 mM bile salts and pancreatin (100 U/ml) in 0.025 M potassium phosphate buffer (pH=7). Digestion mixtures were incubated at 37° C. and 100 rpm for 2 h. After the simulated gastric and intestinal digestions, both the phenolic infused cells and control cells were isolated by centrifuging at 5000 rpm for 2 min and will be washed three times with autoclaved 1×PBS. Viable cells were enumerated after serial dilutions on selective media plates. The viability of cells were measured in triplicates and the results of these measurements were averaged. Live probiotic cells must reach the colon alive for colonization and related health benefits. These figures plot survivability of L. paracasei (LP), Lactobacillus casei (LC) and L. rhamnosus (LR) probiotic cells with and without infused plant extracts during simulated gastrointestinal treatments with simulated gastric fluid (SGF) for 2 h, followed by the treatment with simulated intestinal fluid (SIF) for next 2 h.

[2] = test system: L. casei cells; experiment: survivability of model probiotic L. casei cells loaded with other polyphenols or mixed with catechin during simulated digestion (FIG. 6); conditions: for survivability of probiotic bacteria during simulated gastro-intestinal digestion: L. casei cells infused
Experimental: To illustrate the role of phenolic bioactives in influencing cell viability, changes in the intracellular pH and interactions of bile salts with cells were measured after simulated gastric and intestinal treatments respectively. Survivability of cells with and without infused plant extracts were evaluated during simulated gastrointestinal treatments under anaerobic conditions. Simulated gastric fluids (SGF, pH=3) were prepared by adding 0.5% w/v sodium chloride, hydrochloric acid to maintain pH and 3.2 mg/ml pepsin. 1 g of selected bacterial cells with and without infused plant extracts were separately incubated in SGF for 2 h at 37° C. and 100 rpm.
After gastric treatment, the cells were pelleted down by centrifuging at 5000 rpm for 2 min and then resuspended in the simulated intestinal fluids (SIF) containing 3.33 mg/mL calcium chloride, 5 g/L sodium chloride, 10 mM bile salts and pancreatin (100 U/ml) in 0.025 M potassium phosphate buffer (pH=7). Digestion mixtures were incubated at 37° C. and 100 rpm for 2 h. After the simulated gastric and intestinal digestions, both the phenolic infused cells and control cells were isolated by centrifuging at 5000 rpm for 2 min and will be washed three times with autoclaved 1×PBS. Viable cells were enumerated after serial dilutions on selective media plates. The viability of cells were measured in triplicates and the results of these measurements were averaged.
Survivability of probiotic cells was not improved if polyphenols were not infused in cells but only added in the same amount to the gastric fluid.

[3] = test system: L. casei, L. paracasei and L. rhamnosus cells; experiment: metabolic activity by resazurin fluorescence assay after simulated gastric fluid; conditions: infused L. casei cells, SGF
Experimental: For this assay, 6 log CFUs/ml of cells (with and without infused phenolic actives) in selective culture media was prepared. 1 mL of each of the samples were added to a flat bottom 24 well culture plates and 50 μM of resazurin was added to each well plates. Plates were sealed with PCR sealing films inside anerobic cabinet to maintain in-situ anaerobic conditions and were immediately incubated at 37° C. for 16 h. Fluorescence data was collected each 5 min at 580 nm (λex=530 nm). The reduction of resazurin was evaluated by the assay. After cells were treated with simulated gastric fluid, 1 mL of each samples was centrifugated (16,000×g for 2 min) and resuspended in 1 mL of MRS broth containing 50 μM of resazurin. Then, plate was incubated at 37° C. for 16 h and read each 5 min (530 nm/580 nm). […] The reduction of resazurin to resorufin (fluorescent form) was measured to correlate with the metabolic activity of three types of probiotic cells with different infused polyphenols and conditions, as shown in FIG. 7 through FIG. 20. The production of resorufin increases the intensity of fluorescence, while the reduction of the peak is related with the production of hydroresorufin.

COc1cc(/C=C/C(=O)CC(=O)/C=C/c2ccc(O)c(OC)c2)ccc1O [curcumin]
Stability of probiotics against gastric pH and bile salt tolerance [1]: enhanced
survivability of probiotic bacteria during simulated gastro-intestinal digestion [2]: Enhanced stability; also recorded: significantly enhance survivability
metabolic activity after simulated gastric treatment [3]: further suppressed

O=c1c(O)c(-c2ccc(O)c(O)c2)oc2cc(O)ccc12 [fisetin]
Stability of probiotics against gastric pH and bile salt tolerance [1]: enhanced
survivability of probiotic bacteria during simulated gastro-intestinal digestion [2]: Enhanced stability; also recorded: significantly enhance survivability

catechin
survivability / stability during simulated gastro-intestinal digestion ([1]; infused cells, SGF then SIF): stable; also recorded: maintained their population
Stability of probiotics against gastric pH and bile salt tolerance [1]: enhanced
survivability of probiotic bacteria during simulated digestion ([2]; simply mixed with cells or added to gastric fluid, not infused): no significant improvement in survivability

Source: patent US20240150705A1, “POLYPHENOL INFUSED PROBIOTICS AND METHODS FOR IMPROVED GUT SURVIVABILITY, PERSISTENCE AND COLONIZATION” (THE REGENTS OF THE UNIVERSITY OF CALIFORNIA, priority 2021, published 2024)
